According to patent publication US20120178815A1, “Compositions of (-)-E-10-OH-NT and Methods for Their Synthesis and Use” (Adolor Corporation, priority 2007, published 2012):

What was measured:
CYP2D6 = target: T1, CYP2D6 (Homo sapiens, UniProt P10635); experiment: CYP2D6 inhibition, MAMC substrate; assay type: in vitro ADME; conditions: average of six replicate experiments; for inhibition at 10 µM: human, microsomes containing human recombinant CYP2D6, probe 7-methoxy-4-(aminomethyl)-coumarin (MAMC), 10 μM test compound, read-out: Inhibition of CYP2D6, % inhib. at 10 μM; for IC50: 95% confidence limits in parentheses
T1 construct: purchased BD Bioscience
T1 sequence (P10635 whole entry): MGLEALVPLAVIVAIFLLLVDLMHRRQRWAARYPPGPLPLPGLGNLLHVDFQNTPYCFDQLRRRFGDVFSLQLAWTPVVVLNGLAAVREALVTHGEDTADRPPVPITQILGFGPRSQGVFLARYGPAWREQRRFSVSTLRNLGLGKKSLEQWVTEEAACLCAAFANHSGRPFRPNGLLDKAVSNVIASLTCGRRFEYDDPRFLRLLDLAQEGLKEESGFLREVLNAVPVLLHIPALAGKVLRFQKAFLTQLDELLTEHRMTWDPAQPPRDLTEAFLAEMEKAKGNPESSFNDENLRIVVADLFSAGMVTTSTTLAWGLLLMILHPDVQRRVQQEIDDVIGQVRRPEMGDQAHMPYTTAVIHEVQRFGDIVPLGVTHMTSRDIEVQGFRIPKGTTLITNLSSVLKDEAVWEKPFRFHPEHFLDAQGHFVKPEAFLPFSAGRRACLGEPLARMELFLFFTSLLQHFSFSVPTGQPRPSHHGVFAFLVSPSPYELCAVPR
Description: Protocol. The inhibitory activities of AT and NT, (+)-E-10-OH-NT and (−)-E-10-OH-NT on cytochrome P450 function were tested using the methods of Chauret et al., 2001, using 7-methoxy-4-(aminomethyl)-coumarin (MAMC) (Venhorst et al., 2000) as substrate. The source of the enzyme was microsomes containing human recombinant CYP2D6 obtained from BD Bioscience. Conversion of MAMC to 7-hydroxy-4-(aminomethyl)coumarin was measured using a PerkinElmer Fusion with a 390 nm excitation filter and a 460 nm emission filter.

[1] = target: T2, human dopamine transporter (hDAT) (Homo sapiens, UniProt Q01959); experiment: DA transporter competitive binding assay, [3H]BTCP; conditions: for inhibition at 10 µM: read-out: Monoamine Transporter Affinity, DA, % inhib at 10 μM; for Ki: read-out: Monoamine Transporter Affinity, DA, Ki
T2 construct: expressed in transfected cells; host or cells: CHO cells (membranes)
T2 sequence (Q01959 whole entry): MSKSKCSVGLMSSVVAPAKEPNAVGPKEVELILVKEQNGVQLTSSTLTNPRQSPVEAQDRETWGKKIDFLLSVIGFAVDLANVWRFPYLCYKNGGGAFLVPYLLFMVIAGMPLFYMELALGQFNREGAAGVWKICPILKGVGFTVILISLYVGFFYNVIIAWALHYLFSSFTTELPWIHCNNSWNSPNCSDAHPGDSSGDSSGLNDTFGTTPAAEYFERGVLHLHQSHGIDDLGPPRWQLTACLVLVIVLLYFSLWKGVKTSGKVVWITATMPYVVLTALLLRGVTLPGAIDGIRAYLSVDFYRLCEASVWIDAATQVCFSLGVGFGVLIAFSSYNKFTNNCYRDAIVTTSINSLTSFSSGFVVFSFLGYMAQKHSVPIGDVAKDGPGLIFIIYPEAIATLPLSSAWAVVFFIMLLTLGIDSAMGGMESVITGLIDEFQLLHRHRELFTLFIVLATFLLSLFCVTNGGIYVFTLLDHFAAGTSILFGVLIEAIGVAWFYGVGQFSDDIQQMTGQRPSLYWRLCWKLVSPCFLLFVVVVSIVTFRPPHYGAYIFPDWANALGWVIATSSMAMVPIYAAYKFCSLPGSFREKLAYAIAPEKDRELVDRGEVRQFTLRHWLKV
Description: For the DA transporter binding assay, [^3H]N-[1-(2-benzo[b]thiophenyl)cyclohexyl]-piperidine ([^3H]BTCP) (4.0 nM) was incubated for 2 hr at 4° C. with membranes prepared from Chinese hamster ovary (CHO) cells heterologously expressing the cloned human dopamine transporter (hDAT). Various concentrations of test compound were added and bound radioactivity was determined by scintillation spectroscopy. Non-specific binding was defined as binding that occurred in the presence of 10 μM BTCP. The Ki values for the various test compounds were determined using standard methods.

[2] = target: T3, human muscarinic receptor M4 (Homo sapiens, UniProt P08173); experiment: Muscarinic M4 receptor binding, [3H]4-DAMP; conditions: read-out: Affinity for Muscarinic Receptors, M4, Ki
T3 construct: expressed in transfected cells; host or cells: CHO cells (membranes)
T3 sequence (P08173 1-479): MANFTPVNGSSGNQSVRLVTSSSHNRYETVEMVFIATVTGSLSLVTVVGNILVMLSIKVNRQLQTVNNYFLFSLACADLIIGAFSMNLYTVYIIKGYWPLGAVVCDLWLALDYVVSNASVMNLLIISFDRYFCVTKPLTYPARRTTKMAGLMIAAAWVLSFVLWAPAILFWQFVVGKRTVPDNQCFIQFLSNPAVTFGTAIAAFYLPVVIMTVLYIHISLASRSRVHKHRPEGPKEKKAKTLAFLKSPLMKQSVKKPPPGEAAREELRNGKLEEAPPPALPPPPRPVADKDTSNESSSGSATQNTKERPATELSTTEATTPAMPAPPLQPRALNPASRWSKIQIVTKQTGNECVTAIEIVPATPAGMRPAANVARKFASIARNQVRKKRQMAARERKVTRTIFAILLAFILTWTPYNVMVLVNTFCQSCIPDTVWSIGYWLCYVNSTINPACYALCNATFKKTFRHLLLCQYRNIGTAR
Description: Protocol. […] Bound radioactivity was determined by scintillation spectroscopy. Non-specific binding was defined as the amount of bound radioligand in the presence of 1.0 μM atropine. Radioligand for the M1 receptor was [^3H]pirenzepine (2 nM). Radioligand for the M2 receptor was [^3H]AF-DX384 (2 nM). Radioligand for the M3, M4, and M5 receptors was [^3H]4-DAMP.

[3] = tested on: FCA-induced mechanical hyperalgesia in rats; experiment: Rat FCA-induced mechanical hyperalgesia assay (paw pressure threshold); assay type: in vivo; conditions: for antihyperalgesia (% AH): 1 hour after treatment; for antihyperalgesia (% AH) / antihyperalgesic activity (% AH): 24 h FCA-treated rats; for antihyperalgesic activity (% AH): 60 mg/kg IP; for antihyperalgesic activity (% AH) / ED50 for reversal of mechanical hyperalgesia: 1 h posttreatment; for ED50 for reversal of mechanical hyperalgesia: response at 60 mg/kg IP taken as maximal response (100%)
Description: Protocol. […] Dosage amounts are based on the amount of free base. For the assay, the methods of DeHaven-Hudkins et al., 1999 were used to determine mechanical hyperalgesia in rats 24 hours after intraplantar administration of 150 μL Freund's Complete Adjuvant (FCA). To determine paw pressure thresholds, the rats were lightly restrained in a gauze wrap and pressure was applied to the dorsal surface of the inflamed and uninflamed paw with a conical piston using a pressure analgesia apparatus (Stoelting Instruments, Wood Dale, Ill.). The paw pressure threshold was defined as the amount of force (in grams) required to elicit an escape response using a cutoff value of 250 grams.
Paw pressure thresholds were measured 1 h posttreatment.
Protocol. […] For comparison, sterile water vehicle was tested as a negative control. The methods of DeHaven-Hudkins et al., 1999 were used to determine mechanical hyperalgesia in rats 24 hours after intraplantar administration of 150 μL Freund's Complete Adjuvant (FCA). To determine paw pressure thresholds, the rats were lightly restrained in a gauze wrap and pressure was applied to the dorsal surface of the inflamed and uninflamed paw with a conical piston using a pressure analgesia apparatus (Stoelting Instruments, Wood Dale, Ill.). The paw pressure threshold was defined as the amount of force (in grams) required to elicit an escape response using a cutoff value of 250 grams.
Paw pressure thresholds were determined 1, 2, or 4 hours after administration using the methods disclosed in Examples 5 and 18.
Accordingly, rats were treated with sterile water vehicle, 30, or 60 mg/kg IP twenty-four hours after administration of FCA.

α2a adrenergic receptor = target: T4, α2a adrenergic receptor (Homo sapiens, UniProt P08913); experiment: α2a adrenergic receptor binding, [3H]RX821002; conditions: for inhibition at 10 µM: read-out: α2a adrenergic receptor, % inhib. at 10 μM
T4 construct: expressed in transfected cells; host or cells: CHO cells
T4 sequence (P08913 1-465): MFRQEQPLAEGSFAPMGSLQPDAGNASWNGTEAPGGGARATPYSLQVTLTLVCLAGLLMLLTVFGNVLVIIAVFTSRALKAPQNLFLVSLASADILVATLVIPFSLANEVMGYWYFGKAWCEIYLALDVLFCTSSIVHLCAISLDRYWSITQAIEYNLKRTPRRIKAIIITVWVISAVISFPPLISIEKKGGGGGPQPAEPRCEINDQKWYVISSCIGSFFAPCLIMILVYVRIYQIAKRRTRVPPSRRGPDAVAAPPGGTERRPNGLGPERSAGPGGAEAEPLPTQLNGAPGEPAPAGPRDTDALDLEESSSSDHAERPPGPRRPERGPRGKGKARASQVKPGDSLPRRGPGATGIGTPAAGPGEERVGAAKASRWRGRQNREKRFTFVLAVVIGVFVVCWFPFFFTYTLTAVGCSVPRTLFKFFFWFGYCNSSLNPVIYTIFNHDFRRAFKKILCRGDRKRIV
Description: Affinity for the α2a adrenergic receptor was tested using CHO cells heterologously expressing the cloned human receptor that were incubated with [^3H]RX821002 (1.0 nM) in the presence of various concentrations of test compounds for 1 hour at 22° C. Nonspecific binding was determined in the presence of 100 μM (−)-epinephrine. Bound radioactivity was determined by scintillation spectroscopy.

SMILES	inhibition at 10 µM (CYP2D6) [%]	inhibition at 10 µM [1] [%]	Ki [1] [nM]	Ki [2] [nM]	antihyperalgesia (% AH) ([3]; 30 mg/kg IP)	antihyperalgesic activity, time course ([3]; 30 mg/kg IP, 1, 2, or 4 hours after administration)	antihyperalgesic activity (% AH) [3] [% AH]	inhibition at 10 µM (α2a adrenergic receptor) [%]	antihyperalgesic activity (Example 5) ([3]; 30 mg/kg, i.p.)	antihyperalgesic activity, orally-administered ([3]; oral administration)	ED50 for reversal of mechanical hyperalgesia [3] [mg/kg IP]	IC50 (CYP2D6) [nM]	Ki (α2a adrenergic receptor; read-out: Affinity at α2a adrenergic receptor, Ki) [nM]
CNCC/C=C1\c2ccccc2C[C@H](O)c2ccccc21 (stereo in doubt) [(+)-E-10-OH-NT]	40	25	> 1000	390	not antihyperalgesic	not antihyperalgesic at any time point tested	40±13	15					
CNCC/C=C1\c2ccccc2C[C@@H](O)c2ccccc21 (stereo in doubt) [(−)-E-10-OH-NT]	37	3	> 1000	170	55±7 % AH		270±53	23	robust antihyperalgesic activity	significant activity	36		
CN(C)CCC=C1c2ccccc2CCc2ccccc21 [AT, amitriptyline, reference compound]			2100	3.6			259±39				38	820	570
CNCCC=C1c2ccccc2CCc2ccccc21 [NT, nortriptyline, reference compound]												700	
